{"source": "ChEMBL document CHEMBL1201862", "about": "“PubChem BioAssay data set” (2004)", "key": {"Streptokinase A": {"molecular_target": "T1, Streptokinase A (Streptococcus pyogenes serotype M1, UniProt P10520)", "T1 sequence (P10520 whole entry)": "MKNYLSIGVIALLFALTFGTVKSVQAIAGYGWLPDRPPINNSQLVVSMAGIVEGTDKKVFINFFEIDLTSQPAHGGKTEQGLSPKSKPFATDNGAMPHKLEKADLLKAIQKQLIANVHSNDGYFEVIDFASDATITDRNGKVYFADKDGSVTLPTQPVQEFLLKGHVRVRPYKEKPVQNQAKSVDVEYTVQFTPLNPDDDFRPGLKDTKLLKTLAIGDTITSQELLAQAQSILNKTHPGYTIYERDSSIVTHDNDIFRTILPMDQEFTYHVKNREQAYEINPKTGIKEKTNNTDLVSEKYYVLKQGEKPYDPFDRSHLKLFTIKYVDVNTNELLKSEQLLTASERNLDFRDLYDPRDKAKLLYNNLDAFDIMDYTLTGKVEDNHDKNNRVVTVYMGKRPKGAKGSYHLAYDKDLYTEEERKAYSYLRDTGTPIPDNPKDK", "assay": "S. pyogenes streptokinase expression inhibitors, potency, dose response, plasminogen activation absorbance, OD405 (AID 1914);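 further: secreted streptokinase activity via plasminogen activation per viability signal from cell pellet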", "assay_type": "functional, Streptococcus pyogenes M1 GAS"}, "Streptococcus": {"test_system": "Streptococcus", "assay": "Group A Streptococcus viability loss, dose response, counter-screen for streptokinase expression inhibitor project, luminescence, BacTiterGlo (AID 1915);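 further: potency for reduction of bacterial viability or growth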", "assay_type": "functional, organism-based"}, "HEK293 [1]": {"test_system": "HEK293", "assay": "NOD2 signaling inhibitors in MDP-stimulated cells, cell-based, uHTS, luminescence (AID 2001)", "assay_type": "functional", "conditions": "Homo sapiens"}, "HEK293 [2]": {"test_system": "HEK293", "assay": "cells", "assay_type": "functional, cell-based", "conditions": "Homo sapiens"}, "HEK293 [3]": {"test_system": "HEK293", "assay": "cells", "assay_type": "functional, cell-based", "conditions": "Homo sapiens", "remark": "listed apart in the source"}, "[4]": {"assay": "cytotoxicity in HPDE-C7 cells, cell-based, fluorescence, HTS (AID 430)", "assay_type": "functional", "conditions": "Homo sapiens"}, "[5]": {"assay": "cytotoxicity in KRAS-transformed pancreatic duct cells, primary screen, cell-based, fluorescence, HTS (AID 431);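 further: cell line used: HPDE-C7K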", "assay_type": "functional", "conditions": "Homo sapiens"}, "[6]": {"test_system": "Streptococcus sp. 'group A'", "assay": "growth inhibition of control SK(-) GAS strain, dose response, counter-screen for streptokinase expression inhibitor project, luminescence, kanamycin, BacTiterGlo, confirmation (AID 1900)", "assay_type": "functional, organism-based"}, "HEK293 [7]": {"test_system": "HEK293", "assay": "NOD1 signaling inhibitors, primary screen, cell-based, luminescence, uHTS (AID 1578)", "assay_type": "functional", "conditions": "Homo sapiens"}, "Protein RecA": {"molecular_target": "T2, Protein RecA (Mycobacterium tuberculosis, UniProt P9WHJ3)", "T2 sequence (P9WHJ3 whole entry)": "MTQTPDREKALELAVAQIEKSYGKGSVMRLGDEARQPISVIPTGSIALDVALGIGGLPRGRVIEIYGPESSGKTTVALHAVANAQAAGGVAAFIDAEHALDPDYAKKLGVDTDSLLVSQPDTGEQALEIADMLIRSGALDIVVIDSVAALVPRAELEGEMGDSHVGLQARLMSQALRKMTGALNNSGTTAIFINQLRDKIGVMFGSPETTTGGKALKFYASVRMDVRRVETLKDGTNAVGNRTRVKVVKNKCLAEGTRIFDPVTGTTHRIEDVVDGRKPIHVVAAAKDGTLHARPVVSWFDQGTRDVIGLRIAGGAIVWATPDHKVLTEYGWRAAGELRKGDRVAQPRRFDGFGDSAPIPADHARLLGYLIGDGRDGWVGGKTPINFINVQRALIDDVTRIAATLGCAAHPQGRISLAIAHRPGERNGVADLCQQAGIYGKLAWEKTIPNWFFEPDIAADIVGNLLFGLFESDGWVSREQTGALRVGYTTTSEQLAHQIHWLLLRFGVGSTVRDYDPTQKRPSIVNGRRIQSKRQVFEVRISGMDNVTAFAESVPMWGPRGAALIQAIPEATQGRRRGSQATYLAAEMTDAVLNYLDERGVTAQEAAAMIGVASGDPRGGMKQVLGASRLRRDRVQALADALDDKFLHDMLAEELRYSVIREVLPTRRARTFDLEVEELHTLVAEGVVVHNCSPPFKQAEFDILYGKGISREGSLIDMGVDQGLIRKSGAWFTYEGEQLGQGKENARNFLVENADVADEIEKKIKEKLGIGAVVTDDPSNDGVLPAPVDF", "assay": "Fluorescence Cell-Free Homogeneous Dose Retest to Identify Inhibitors of RecA-Intein Splicing Activity. [Related pubchem assays (depositor defined):AID2097, AID2223, AID489010, AID492950]", "assay_type": "functional"}, "[8]": {"molecular_target": "T3, Replicative DNA helicase DnaB (Mycobacterium tuberculosis, UniProt P9WMR3)", "T3 sequence (P9WMR3 whole entry)": "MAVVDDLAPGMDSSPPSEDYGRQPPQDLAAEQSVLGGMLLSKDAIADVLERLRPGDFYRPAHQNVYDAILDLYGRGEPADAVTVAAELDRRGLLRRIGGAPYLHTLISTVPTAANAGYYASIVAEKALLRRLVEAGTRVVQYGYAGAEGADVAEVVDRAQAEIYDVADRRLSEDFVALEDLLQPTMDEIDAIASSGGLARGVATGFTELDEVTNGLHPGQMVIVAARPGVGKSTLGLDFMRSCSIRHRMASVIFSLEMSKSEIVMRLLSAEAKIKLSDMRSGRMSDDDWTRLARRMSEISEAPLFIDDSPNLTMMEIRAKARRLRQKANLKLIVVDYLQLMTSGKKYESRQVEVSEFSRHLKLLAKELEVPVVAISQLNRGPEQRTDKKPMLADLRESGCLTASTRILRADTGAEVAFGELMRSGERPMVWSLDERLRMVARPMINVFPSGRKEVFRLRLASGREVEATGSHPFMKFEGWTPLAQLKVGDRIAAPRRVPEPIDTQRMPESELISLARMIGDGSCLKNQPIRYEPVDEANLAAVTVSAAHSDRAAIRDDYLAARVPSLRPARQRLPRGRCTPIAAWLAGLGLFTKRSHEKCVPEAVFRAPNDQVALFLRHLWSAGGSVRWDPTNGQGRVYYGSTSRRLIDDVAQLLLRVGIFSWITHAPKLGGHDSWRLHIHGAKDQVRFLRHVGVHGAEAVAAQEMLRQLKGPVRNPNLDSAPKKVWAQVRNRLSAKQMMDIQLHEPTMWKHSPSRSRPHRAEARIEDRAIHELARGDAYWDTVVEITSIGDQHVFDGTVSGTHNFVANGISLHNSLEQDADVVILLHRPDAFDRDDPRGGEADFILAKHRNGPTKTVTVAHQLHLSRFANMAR", "assay": "DnaB intein splicing inhibitors, dose response, biochemical, cell-free fluorescence (AID 449749)", "assay_type": "functional"}, "[9]": {"molecular_target": "SWI/SNF-related matrix-associated actin-dependent regulator of chromatin subfamily A member 2 (Homo sapiens, UniProt P51531)", "sequence (P51531 whole entry)": "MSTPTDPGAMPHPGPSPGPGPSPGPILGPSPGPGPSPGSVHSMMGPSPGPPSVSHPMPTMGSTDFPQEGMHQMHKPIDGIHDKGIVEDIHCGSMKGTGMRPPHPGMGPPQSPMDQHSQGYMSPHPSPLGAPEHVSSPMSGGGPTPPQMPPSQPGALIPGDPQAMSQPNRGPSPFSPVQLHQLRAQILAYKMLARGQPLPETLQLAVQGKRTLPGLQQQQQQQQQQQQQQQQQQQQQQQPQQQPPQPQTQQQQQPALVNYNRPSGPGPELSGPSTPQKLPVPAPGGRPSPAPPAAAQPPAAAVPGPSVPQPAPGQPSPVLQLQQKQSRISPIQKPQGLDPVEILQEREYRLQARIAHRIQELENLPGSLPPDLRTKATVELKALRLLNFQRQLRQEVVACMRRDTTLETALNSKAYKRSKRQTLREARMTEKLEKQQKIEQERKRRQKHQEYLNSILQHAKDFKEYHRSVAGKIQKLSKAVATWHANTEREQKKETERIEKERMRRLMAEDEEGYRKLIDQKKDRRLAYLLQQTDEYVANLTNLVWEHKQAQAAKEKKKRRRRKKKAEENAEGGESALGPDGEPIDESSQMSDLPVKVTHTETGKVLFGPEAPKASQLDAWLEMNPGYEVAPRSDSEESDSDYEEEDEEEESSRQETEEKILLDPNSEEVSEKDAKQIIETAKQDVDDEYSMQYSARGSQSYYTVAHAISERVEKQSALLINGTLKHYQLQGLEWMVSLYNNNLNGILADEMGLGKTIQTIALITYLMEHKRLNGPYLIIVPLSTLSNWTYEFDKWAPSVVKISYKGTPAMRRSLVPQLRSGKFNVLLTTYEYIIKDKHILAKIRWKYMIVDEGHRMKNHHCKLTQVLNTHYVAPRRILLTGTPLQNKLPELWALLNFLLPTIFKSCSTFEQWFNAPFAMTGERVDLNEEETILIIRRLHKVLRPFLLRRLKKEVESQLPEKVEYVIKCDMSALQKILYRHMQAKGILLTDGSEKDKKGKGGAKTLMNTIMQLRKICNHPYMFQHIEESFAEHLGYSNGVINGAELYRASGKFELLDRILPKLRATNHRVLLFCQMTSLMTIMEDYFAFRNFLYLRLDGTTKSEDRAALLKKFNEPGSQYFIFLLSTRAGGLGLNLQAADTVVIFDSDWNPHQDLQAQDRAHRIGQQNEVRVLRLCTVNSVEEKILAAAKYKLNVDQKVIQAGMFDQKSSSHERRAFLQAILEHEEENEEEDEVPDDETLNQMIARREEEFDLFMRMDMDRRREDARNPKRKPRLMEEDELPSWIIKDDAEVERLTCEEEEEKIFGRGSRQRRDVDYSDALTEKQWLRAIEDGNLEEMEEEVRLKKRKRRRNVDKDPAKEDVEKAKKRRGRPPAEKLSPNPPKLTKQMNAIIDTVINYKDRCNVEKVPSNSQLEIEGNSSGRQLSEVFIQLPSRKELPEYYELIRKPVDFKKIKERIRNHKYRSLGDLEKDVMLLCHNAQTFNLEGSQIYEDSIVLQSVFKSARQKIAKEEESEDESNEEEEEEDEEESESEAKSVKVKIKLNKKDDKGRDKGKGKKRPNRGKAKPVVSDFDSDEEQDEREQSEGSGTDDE", "assay": "Luminescence-based cell-based high throughput dose response assay to identify activators of the function of SWI/SNF related, matrix associated, actin dependent regulator of chromatin, subfamily a, member 2 (SMARCA2, BRM).", "assay_type": "functional"}, "[10]": {"assay": "Counterscreen for activators of the function of SWI/SNF related, matrix associated, actin dependent regulator of chromatin, subfamily a, member 2 (SMARCA2, BRM): Luminescence-based cell-based high throughput dose response assay to identify non-selective compounds using the VP16 reporter assay.", "assay_type": "functional"}, "[11]": {"assay": "MC4R antagonists, dose response, counter-screen for LGR2 antagonist project, cell-based, plate reader, cherry pick (AID 743444);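 further: transfected HEK 293 cells stimulated with alpha-MSH peptide; potency of inhibitors of the alpha-MSH evoked signal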", "assay_type": "functional"}, "[12]": {"assay": "LGR2 antagonists, dose response, cell-based, HEK293, CRE-luciferase reporter, cherry pick, set 2 (AID 743343);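 further: transfected cells were stimulated with diluted bursicon conditioned medium after compound addition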", "assay_type": "functional"}, "HEK293 [13]": {"test_system": "HEK293", "assay": "inhibitors of LMP1-driven NF-kB reporter, dose response, cell-based, HEK293, luciferase, cherry-pick (AID 588343)", "assay_type": "functional", "conditions": "Homo sapiens"}, "[14]": {"molecular_target": "G-protein coupled receptor 55 (Homo sapiens, UniProt Q9Y2T6)", "sequence (Q9Y2T6 whole entry)": "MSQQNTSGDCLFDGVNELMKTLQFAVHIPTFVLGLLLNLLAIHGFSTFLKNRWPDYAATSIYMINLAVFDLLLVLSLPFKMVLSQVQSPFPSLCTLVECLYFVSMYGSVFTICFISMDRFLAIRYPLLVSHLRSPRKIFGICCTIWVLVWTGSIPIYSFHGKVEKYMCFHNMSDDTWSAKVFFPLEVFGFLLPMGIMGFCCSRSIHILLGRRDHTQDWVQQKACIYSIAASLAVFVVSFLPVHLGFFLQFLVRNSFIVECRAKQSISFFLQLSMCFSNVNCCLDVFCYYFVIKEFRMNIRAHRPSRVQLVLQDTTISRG", "assay": "GPR55 antagonists blocking LPI-driven arrestin recruitment, primary screen, imaging, U2OS, beta-arrestin-GFP, LPI agonist (AID 2013);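 further: antagonist potency measured as reduced agonist-driven arrestin aggregation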", "assay_type": "functional"}, "[15]": {"assay": "CEM21 lymphoblast cell cytotoxicity, dose response, cytotoxicity control for viral fusion inhibitor project, CellTiter-Glo luminescence, cherry-picked (AID 652042);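 further: potency for signal decrease meaning cytotoxicity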", "assay_type": "functional, cell-based"}, "[16]": {"assay": "inhibitors of HIV Env-driven cell fusion, dose response, cherry-pick (AID 652057)", "assay_type": "functional, cell-based"}, "[17]": {"assay": "off-target signal loss in HeLa-CEM21 co-culture – HeLa F-luc CTL cells, cherry-picked, counter-screen for HIV-1 Env fusion inhibitor project, dose response (AID 652040);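 further: potency for signal decrease marking cytotoxic or nonspecific inhibition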", "assay_type": "functional, cell-based"}, "[18]": {"assay": "inhibitors of clade B AD8 Env fusion, dose response, cell-based, cherry-pick (AID 652062);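 further: potency is for inhibitors of fusion seen as a drop in luminescence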", "assay_type": "functional"}, "[19]": {"assay": "HEp-2 cell cytotoxicity, dose response, cytotoxicity control for RSV inhibitor project, HTS (AID 2410)", "assay_type": "functional", "conditions": "human respiratory syncytial virus"}, "[20]": {"molecular_target": "T4, Oxysterols receptor LXR-beta (Homo sapiens, UniProt P55055)", "T4 sequence (P55055 whole entry)": "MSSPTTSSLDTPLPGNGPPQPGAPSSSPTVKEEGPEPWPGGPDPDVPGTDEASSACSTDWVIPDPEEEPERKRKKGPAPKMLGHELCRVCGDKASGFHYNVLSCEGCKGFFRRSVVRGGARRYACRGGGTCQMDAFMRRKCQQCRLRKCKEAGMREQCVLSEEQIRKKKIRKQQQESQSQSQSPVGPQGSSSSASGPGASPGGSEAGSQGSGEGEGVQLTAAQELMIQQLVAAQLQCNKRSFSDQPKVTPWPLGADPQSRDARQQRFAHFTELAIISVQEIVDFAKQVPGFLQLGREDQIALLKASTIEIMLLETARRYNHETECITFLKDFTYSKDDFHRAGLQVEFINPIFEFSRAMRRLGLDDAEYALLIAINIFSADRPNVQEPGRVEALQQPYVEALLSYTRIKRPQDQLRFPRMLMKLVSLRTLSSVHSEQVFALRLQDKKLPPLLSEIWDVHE", "assay_type": "functional, cell-based"}}, "note": "Calls of active or inactive are those of the source."}
{"smiles": "Cc1conc1NC(c1cccs1)c1ccc2cccnc2c1O", "note": "(stereo unspecified)", "values": [{"measurement": "EC50", "setting": "Streptokinase A", "result": "> 150 µM (not active)"}, {"measurement": "EC50", "setting": "Streptococcus", "result": "7.33 µM (active)"}, {"measurement": "IC50", "setting": "HEK293 [1]", "result": "6.1 µM (active)"}, {"measurement": "IC50", "setting": "HEK293 [2]", "result": "> 20 µM (inactive)"}, {"measurement": "IC50", "setting": "HEK293 [3]", "result": "4.74 µM (active)"}, {"measurement": "EC50", "setting": "[4]", "result": "10.2 µM (active)"}, {"measurement": "EC50", "setting": "[5]", "result": "5.68 µM (active)"}, {"measurement": "EC50", "setting": "[6]", "result": "1.93 µM (active)"}, {"measurement": "EC50", "setting": "HEK293 [7]", "result": "> 20 µM (inactive)"}]}
{"smiles": "Cc1cc(C)n2nc(CNS(=O)(=O)c3c(F)c(F)c(F)c(F)c3F)nc2n1", "values": [{"measurement": "EC50", "setting": "Protein RecA", "result": "10.8 µM (active)"}, {"measurement": "AC50", "setting": "[8]", "result": "38.5 µM (active)"}, {"measurement": "EC50", "setting": "[9]", "result": "> 91.2 µM (inactive)"}, {"measurement": "EC50", "setting": "[10]", "result": "> 91.2 µM (inactive)"}]}
{"smiles": "O=C(CN1C(=O)c2ccccc2S1(=O)=O)c1ccccc1F", "values": [{"measurement": "AC50", "setting": "[11]", "result": "4.05 µM (active)"}, {"measurement": "AC50", "setting": "[12]", "result": "2.28 µM (active)"}, {"measurement": "AC50", "setting": "HEK293 [13]", "result": "3.69 µM (active)"}]}
{"smiles": "O=C(NC(=S)NC1CCN(Cc2ccccc2)CC1)c1ccc(F)cc1", "values": [{"measurement": "IC50", "setting": "[14]", "result": "4.67 µM (active)"}]}
{"smiles": "Cc1ccc(COC(=O)c2cc(S(=O)(=O)N3CCCCC3)ccc2N2CCOCC2)cc1", "values": [{"measurement": "AC50", "setting": "[15]", "result": "68.1 µM (active)"}, {"measurement": "AC50", "setting": "[16]", "result": "19.8 µM (active)"}, {"measurement": "AC50", "setting": "[17]", "result": "> 70 µM (inactive)"}, {"measurement": "AC50", "setting": "[18]", "result": "10.6 µM (active)"}]}
{"smiles": "CCN(CC)S(=O)(=O)c1cc(C(=O)OCC(=O)Nc2ccc(-c3nc4ccc(C)cc4s3)cc2)ccc1F", "values": [{"measurement": "AC50", "setting": "[11]", "result": "3.11 µM (active)"}, {"measurement": "AC50", "setting": "[12]", "result": "3.17 µM (active)"}, {"measurement": "CC50", "setting": "[19]", "result": "11.4 µM (active)"}, {"measurement": "EC50", "setting": "[20]", "result": "> 67.5 µM (inactive)"}]}
{"smiles": "CCCSc1ncc(Cl)c(C(=O)Nc2ccc(S(=O)(=O)N3CC(C)OC(C)C3)cc2)n1", "note": "(stereo unspecified)", "values": [{"measurement": "IC50", "setting": "[14]", "result": "5.75 µM (active)"}]}
